According to the NIST ThermoML archive (doi:10.1021/je0601255):
Numbers after ± are expanded uncertainties.

Assay: xn = mol fraction of the nth substance listed
Settings: 101 kPa, Liquid; for viscosity: Capillary tube (Ostwald / Ubbelohde) method; for mass density: Pycnometric method

C=C(C)C(=O)OCCO [2-hydroxyethyl 2-methyl-2-propenoate] + CCCCO
Settings	mass density, 288.15 K [kg/m3]	mass density, 298.15 K [kg/m3]	mass density, 308.15 K [kg/m3]	mass density, 318.15 K [kg/m3]	viscosity, 288.15 K [mPa·s]	viscosity, 298.15 K [mPa·s]	viscosity, 308.15 K [mPa·s]	viscosity, 318.15 K [mPa·s]
x2 = 0	1074.7 ± 2.4	1067.1 ± 2.4	1057.7 ± 2.4	1048.6 ± 2.4	8.234 ± 0.19	5.784 ± 0.13	4.194 ± 0.096	3.181 ± 0.073
x2 = 0.1	1054.5 ± 2.4	1047.1 ± 2.3	1037.9 ± 2.3	1029.1 ± 2.3	7.303 ± 0.17	5.188 ± 0.12	3.822 ± 0.087	2.963 ± 0.068
x2 = 0.2	1033.3 ± 2.3	1025.9 ± 2.3	1016.9 ± 2.3	1008.3 ± 2.2	6.437 ± 0.14	4.643 ± 0.11	3.432 ± 0.077	2.692 ± 0.061
x2 = 0.3	1010.9 ± 2.2	1003.6 ± 2.2	994.8 ± 2.2	986.3 ± 2.2	5.681 ± 0.13	4.154 ± 0.093	3.109 ± 0.07	2.43 ± 0.054
x2 = 0.4	987.3 ± 2.1	980 ± 2.1	971.3 ± 2.1	963 ± 2.1	5.118 ± 0.11	3.738 ± 0.083	2.829 ± 0.063	2.222 ± 0.049
x2 = 0.5	962.2 ± 2.1	955.1 ± 2.1	946.6 ± 2	938.3 ± 2	4.633 ± 0.1	3.398 ± 0.075	2.598 ± 0.057	2.051 ± 0.045
x2 = 0.6	935.7 ± 2	928.6 ± 2	920.3 ± 2	912.1 ± 2	4.195 ± 0.092	3.092 ± 0.068	2.399 ± 0.052	1.9 ± 0.042
x2 = 0.7	907.6 ± 1.9	900.6 ± 1.9	892.4 ± 1.9	884.4 ± 1.9	3.833 ± 0.083	2.834 ± 0.062	2.212 ± 0.048	1.759 ± 0.038
x2 = 0.8	877.7 ± 1.8	870.8 ± 1.8	862.9 ± 1.8	855 ± 1.8	3.534 ± 0.076	2.666 ± 0.057	2.089 ± 0.045	1.657 ± 0.036
x2 = 0.9	846 ± 1.8	839.2 ± 1.8	831.5 ± 1.7	823.8 ± 1.7	3.321 ± 0.071	2.583 ± 0.055	2.018 ± 0.043	1.609 ± 0.035
